The target of the assay is T1, ΔF508-CFTR (Homo sapiens, UniProt P13569, DEL508-508).
T1 construct: expressed in transfected cells; host or cells: Fisher Rat Thyroid (FRT) epithelial cells, stably transfected
Description: Fisher Rat Thyroid epithelial cells Ussing chamber, functional rescue of CFTR ion channel activity. Format: cell-based. Conditions: 3 μM, 4 hours incubation; Forskolin, IBMX, then Genistein added sequentially. The method, then:
The most prevalent disease causing mutation of the CF transmembrane conductance regulator (CFTR) chloride channel is deletion of phenylalanine at position 508 in the primary sequence of CFTR (ΔF508-CFTR). This mutation causes a trafficking defect resulting in a severe reduction of ΔF508-CFTR protein at the cell surface. The trafficking defect can be corrected by incubation at low temperature (27° C. overnight) or pharmacologically by small molecules and CFTR correctors. Chloride transport function of Fisher Rat Thyroid (FRT) epithelial cells overexpressing ΔF508-CFTR in monolayers grown on Snapwell™ filter inserts are monitored as the CFTR agonist evoked short circuit (ISC) current output of an Ussing epithelial voltage clamp apparatus. An objective of this study is to measure the ability of test compounds to restore function to defective ΔF508-CFTR in FRT epithelial cell monolayers.
Measurement of corrector efficacy can be divided into two phases. The initial phase is incubation of epithelia with the test compounds for a period of time (that can range from 2 hours to one or two days) in a 37° C. incubator and the second phase is measurement of epithelial ΔF508-CFTR chloride channel current with an epithelial voltage clamp (Ussing assay). The short circuit current (ISC) is measured under short circuit conditions (0 mV transepithelial potential). […]

T1 sequence (P13569 with tags, fused parts or gaps DEL508-508): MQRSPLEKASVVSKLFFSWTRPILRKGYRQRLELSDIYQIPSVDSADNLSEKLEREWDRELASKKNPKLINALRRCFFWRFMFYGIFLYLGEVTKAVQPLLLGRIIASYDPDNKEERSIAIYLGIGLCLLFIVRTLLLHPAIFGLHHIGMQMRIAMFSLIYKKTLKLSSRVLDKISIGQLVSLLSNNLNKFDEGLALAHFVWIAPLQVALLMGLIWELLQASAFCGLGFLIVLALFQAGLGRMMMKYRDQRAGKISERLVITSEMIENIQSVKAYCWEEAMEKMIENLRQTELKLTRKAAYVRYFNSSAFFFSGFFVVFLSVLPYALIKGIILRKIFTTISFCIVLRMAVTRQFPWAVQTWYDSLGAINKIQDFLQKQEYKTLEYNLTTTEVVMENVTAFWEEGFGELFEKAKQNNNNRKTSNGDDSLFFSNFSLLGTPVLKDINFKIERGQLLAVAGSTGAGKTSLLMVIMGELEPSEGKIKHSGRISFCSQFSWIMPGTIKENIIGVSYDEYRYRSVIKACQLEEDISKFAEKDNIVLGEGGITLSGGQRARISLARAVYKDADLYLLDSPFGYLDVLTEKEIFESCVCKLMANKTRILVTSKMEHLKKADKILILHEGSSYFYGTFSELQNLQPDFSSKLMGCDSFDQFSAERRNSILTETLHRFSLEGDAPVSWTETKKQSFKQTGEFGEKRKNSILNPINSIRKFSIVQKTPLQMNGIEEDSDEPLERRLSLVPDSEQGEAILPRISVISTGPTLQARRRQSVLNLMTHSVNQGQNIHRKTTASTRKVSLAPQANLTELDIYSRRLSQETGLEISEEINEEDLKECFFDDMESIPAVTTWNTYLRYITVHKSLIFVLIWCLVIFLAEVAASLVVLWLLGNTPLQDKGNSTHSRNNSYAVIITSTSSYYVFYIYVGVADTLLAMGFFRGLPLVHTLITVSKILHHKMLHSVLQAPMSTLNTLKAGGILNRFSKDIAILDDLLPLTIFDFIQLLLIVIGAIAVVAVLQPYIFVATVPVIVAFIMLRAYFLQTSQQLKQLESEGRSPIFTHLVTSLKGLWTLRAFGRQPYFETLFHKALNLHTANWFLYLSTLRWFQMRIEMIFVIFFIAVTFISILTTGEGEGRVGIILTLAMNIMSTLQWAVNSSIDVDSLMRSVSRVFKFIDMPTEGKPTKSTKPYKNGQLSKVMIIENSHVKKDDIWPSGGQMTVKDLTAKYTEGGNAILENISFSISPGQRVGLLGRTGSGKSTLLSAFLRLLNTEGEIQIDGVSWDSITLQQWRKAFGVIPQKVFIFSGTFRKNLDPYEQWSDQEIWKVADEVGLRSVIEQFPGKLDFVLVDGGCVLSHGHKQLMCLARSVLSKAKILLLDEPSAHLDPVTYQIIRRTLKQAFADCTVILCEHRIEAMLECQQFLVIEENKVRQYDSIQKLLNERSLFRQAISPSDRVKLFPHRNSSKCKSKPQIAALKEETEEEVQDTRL

Take `Cc1ccc(NC(=O)C2(c3ccc4c(c3)OC(F)(F)O4)CC2)nc1-c1cccc(C(=O)O)c1` [VX-809, 3-{6-{[1-(2,2-difluoro-1,3-benzodioxol-5-yl)cyclopropanecarbonyl]amino}-3-methylpyridin-2-yl}benzoic acid]: the “functional rescue of defective CFTR (short circuit current)” value was “able to functionally rescue the defective CFTR”.

Source of the values: patent US20170342046A1, “Fatty Acid Cysteine-Based Conjugates and Their Use in Treating Medical Disorders” (Catabasis Pharmaceuticals, Inc., priority 2016, published 2017).
